Values after ≈ are worked out from the molar mass of the structure shown. Read-outs that look alike come from different tables or passages of the source. Positions of bridges follow the written chain, without caps; N, C: chain ends. Non-standard residues stand in square brackets, D forms with d. Residues, ends and D or L forms follow the SMILES beside them. R8 = C=CCCCCCC[C@@](C)(N)C(=O)O; S5 = C=CCCC[C@](C)(N)C(=O)O
Legend:
S. epidermidis = test system: S. epidermidis
Experimental: (§1) According to the protocol of Clinical & Laboratory Standards Institute, the minimum inhibitory concentration (MIC) of the linear and stapled peptides against a panel of gram-positive and gram-negative bacteria was determined by the broth microdilution method. […]
(§2) Bacterial strains and culture
(§3) Bacterial type stains ATCC 25923 S. aureus, ATCC 12228 S. epidermidis, ATCC […]
(§4) aeruginosa and ATCC 13883 K. pneumoniae were obtained from Shanghai Bioresource Collection Center. The bacterial culture medium was purchased from Oxoid and autoclaved according to the instructions from manufacturer. The isolated strains were cultured in Mueller Hinton II broth and continuously shaken at 140 rpm for 18 hours to the middle of the exponential growth phase at 37 °C with an OD value of 0.4-0.5.
(§5) Bacterial suspensions with an OD value of 0.1, approximately […], were then diluted for further assays.
(§6) The minimal inhibition concentration (MIC) of the linear and stapled peptides was determined using the microbroth dilution method from the Clinical and Laboratory Standards Institute (CLSI)[2, 3]. Bacterial suspensions of 10 6 CFU/mL were prepared in MH-II broth and peptide solutions at varying concentrations were prepared in phosphate buffer saline (PBS). Then 50 μL peptide solution and 50 μL bacterial suspension were mixed in a 96 -well plate. Plates were incubated for 24 hours at 37 °C.
(§7) 10 μL AlamarBlue cell viability reagent (ThermoFisher Scientific, UK) was added to each well, then the plate was re -incubated for a further 2 hours at 37 °C. The MIC was recorded as the minimum concentration of peptides required to completely in hibit bacteria growth. For serum stability assessment, the peptide solutions were pre - incubated with 50% human serum for 4 h before the MIC determination. Experiments were performed in 3 independent measurements. […]

P. aeruginosa = test system: P. aeruginosa
Experimental: as §1, §2, §3, §4, §5, §6, §7

A. baumannii = test system: A. baumannii
Experimental: as §1, §2, §3, §4, §5, §6, §7

E. faecalis = test system: E. faecalis
Experimental: as §1, §2, §3, §4, §5, §6, §7

E. coli = test system: E. coli
Experimental: as §1, §2, §3, §4, §5, §6, §7

S. aureus = test system: S. aureus
Experimental: as §1, §2, §3, §4, §5, §6, §7

K. pneumoniae = test system: K. pneumoniae
Experimental: as §1, §2, §3, §4, §5, §6, §7

Serum stability assay = assay type: in vitro ADME, human; settings: for metabolised at 1 h, 0.4 mg/mL: human serum in pH 7.4 PBS, 37 °C, RP-HPLC, read-out: fraction hydrolyzed within 1 h; for TD50 (time at which 50% of the peptide is degraded in the presence of serum): human serum, 2 mg/mL peptide in pH 7.4 PBS mixed with serum 1:4, 37 °C, up to 48 h, RP-HPLC UV 220 nm, 3 independent measurements
Source text: Maintaining high stability and presenting high compatibility in the complex physiological environment are important criterions for the clinical translation of AMPs. […] The derivatives were mixed with human serum in pH 7.4 PBS, simulating the degradation process of peptides by proteases in vivo. The percentages of intact derivatives were monitored and determined with time according to the PR-HPLC. […]
Serum stability of the linear and stapled peptides was examined by RP -HPLC as previously described. 2 mg/mL peptide solution was prepared in pH 7.4 PBS and incubated with human serum (Gemini, USA) to the final volume ratio of 1:4 at 37 °C.
At various time intervals, 50 μL mixture was added to 50 μL ethanol to terminate the enzymatic hydrolysis. After centrifugation at 10,000 rpm for 10 minutes under 4 °C, […]
the supernatant was collected and analyzed by RP-HPLC, with a UV detector monitored at 220 nm. Record the peak area of the intact peptide and calculate the percentage of remaining peptide based on the integrated area as, Peptide remaining (%) = peak area of remaining peptide/peak area of intact peptide×100%. […]

Row | Compound | MIC S. epidermidis (S. epidermidis; 24 h) | MIC P. aeruginosa (P. aeruginosa; 24 h) | MIC A. baumannii (A. baumannii; 24 h) | MIC E. faecalis (E. faecalis; 24 h) | MIC E. coli (E. coli; 24 h) | MIC S. aureus (S. aureus; 24 h) | MIC K. pneumoniae (K. pneumoniae; 24 h) | metabolised at 1 h, 0.4 mg/mL (Serum stability assay) | TD50 (time at which 50% of the peptide is degraded in the presence of serum) (Serum stability assay) | MIC S. epidermidis (S. epidermidis; CLSI broth microdilution, MH-II broth, 24 h 37 °C, AlamarBlue, ATCC 12228, 3 independent measurements) | MIC P. aeruginosa (P. aeruginosa; CLSI broth microdilution, MH-II broth, 24 h 37 °C, AlamarBlue, ATCC 27853, 3 independent measurements) | MIC A. baumannii (A. baumannii; CLSI broth microdilution, MH-II broth, 24 h 37 °C, AlamarBlue, ATCC 19606, 3 independent measurements) | MIC E. faecalis (E. faecalis; CLSI broth microdilution, MH-II broth, 24 h 37 °C, AlamarBlue, ATCC 29212, 3 independent measurements) | MIC E. coli (E. coli; CLSI broth microdilution, MH-II broth, 24 h 37 °C, AlamarBlue, ATCC 25922, 3 independent measurements) | MIC S. aureus (S. aureus; CLSI broth microdilution, MH-II broth, 10^6 CFU/mL, 24 h 37 °C, AlamarBlue, ATCC 25923, 3 independent measurements) | MIC K. pneumoniae (K. pneumoniae; CLSI broth microdilution, MH-II broth, 24 h 37 °C, AlamarBlue, ATCC 13883, 3 independent measurements)
1 | CC[C@H](C)[C@H](NC(=O)[C@H](CCCCN)NC(=O)[C@H](CCC(=O)O)NC(=O)[C@H](CCCCN)NC(=O)[C@H](CO)NC(=O)[C@H](CCCCN)NC(=O)[C@H](CCCNC(=N)N)NC(=O)[C@H](Cc1ccccc1)NC(=O)[C@H](Cc1ccccc1)NC(=O)[C@H](CC(=O)O)NC(=O)CNC(=O)[C@H](CC(C)C)NC(=O)[C@@H](N)CC(C)C)C(=O)NCC(=O)N[C@@H](CCCCN)C(=O)N[C@@H](CCC(=O)O)C(=O)N[C@@H](Cc1ccccc1)C(=O)N[C@@H](CCCCN)C(=O)N[C@@H](CCCNC(=N)N)C(=O)N[C@H](C(=O)N[C@H](C(=O)N[C@@H](CCC(N)=O)C(=O)N[C@@H](CCCNC(=N)N)C(=O)N[C@H](C(=O)N[C@@H](CCCCN)C(=O)N[C@@H](CC(=O)O)C(=O)N[C@@H](Cc1ccccc1)C(=O)N[C@@H](CC(C)C)C(=O)N[C@@H](CCCNC(=N)N)C(=O)N[C@@H](CC(N)=O)C(=O)N[C@@H](CC(C)C)C(=O)N[C@H](C(=O)N1CCC[C@H]1C(=O)N[C@@H](CCCNC(=N)N)C(=O)N[C@H](C(=O)N[C@@H](CCC(=O)O)C(=O)N[C@@H](CO)C(=O)O)[C@@H](C)O)C(C)C)[C@@H](C)CC)C(C)C)[C@@H](C)CC [LL-37] | – | – | – | – | – | – | – | > 50% | 0.58 h | – | – | – | – | – | – | –
2 | Ac-KRIVQRIKDFLR-NH2 [KR-12, reference compound] | > 256 mg/L | 256 mg/L | > 256 mg/L | 128 mg/L | 128 mg/L | 32 mg/L | > 256 mg/L | > 50% | 0.78 h | – | – | – | – | – | – | –
3 | polymyxin b [PMB, reference compound] | – | – | – | – | – | – | – | – | – | 128 mg/L | 8 mg/L | 4 mg/L | 256 mg/L | 4 mg/L | 64 mg/L | 16 mg/L

Second part, led by results:

Row | MIC S. epidermidis (S. epidermidis; 24 h) | MIC P. aeruginosa (P. aeruginosa; 24 h) | MIC A. baumannii (A. baumannii; 24 h) | MIC E. faecalis (E. faecalis; 24 h) | MIC E. coli (E. coli; 24 h) | MIC S. aureus (S. aureus; 24 h) | MIC K. pneumoniae (K. pneumoniae; 24 h) | Compound | metabolised at 1 h, 0.4 mg/mL (Serum stability assay) | TD50 (time at which 50% of the peptide is degraded in the presence of serum) (Serum stability assay) | MIC S. epidermidis (S. epidermidis; CLSI broth microdilution, MH-II broth, 24 h 37 °C, AlamarBlue, ATCC 12228, 3 independent measurements) | MIC P. aeruginosa (P. aeruginosa; CLSI broth microdilution, MH-II broth, 24 h 37 °C, AlamarBlue, ATCC 27853, 3 independent measurements) | MIC A. baumannii (A. baumannii; CLSI broth microdilution, MH-II broth, 24 h 37 °C, AlamarBlue, ATCC 19606, 3 independent measurements) | MIC E. faecalis (E. faecalis; CLSI broth microdilution, MH-II broth, 24 h 37 °C, AlamarBlue, ATCC 29212, 3 independent measurements) | MIC E. coli (E. coli; CLSI broth microdilution, MH-II broth, 24 h 37 °C, AlamarBlue, ATCC 25922, 3 independent measurements) | MIC S. aureus (S. aureus; CLSI broth microdilution, MH-II broth, 10^6 CFU/mL, 24 h 37 °C, AlamarBlue, ATCC 25923, 3 independent measurements) | MIC K. pneumoniae (K. pneumoniae; CLSI broth microdilution, MH-II broth, 24 h 37 °C, AlamarBlue, ATCC 13883, 3 independent measurements)
4 | 256 mg/L (≈ 156 µM) | 128 mg/L (≈ 77.8 µM) | 32 mg/L (≈ 19.5 µM) | 256 mg/L (≈ 156 µM) | 64 mg/L (≈ 38.9 µM) | 64 mg/L (≈ 38.9 µM) | 64 mg/L (≈ 38.9 µM) | CC[C@H](C)[C@@H]1NC(=O)[C@H](CCCNC(=N)N)NC(=O)[C@H](CCC(N)=O)NC(=O)[C@H](C(C)C)NC(=O)[C@](C)(NC(=O)[C@H](CCCNC(=N)N)NC(=O)[C@H](CCCCN)NC(C)=O)CCCCCCC=CCCC[C@@](C)(C(=O)N[C@@H](CC(C)C)C(=O)N[C@@H](CCCNC(=N)N)C(N)=O)NC(=O)[C@H](CC(=O)O)NC(=O)[C@H](CCCCN)NC1=O [KR-12 (I3, F10)] (Ac-KR[R8]VQRIKD[S5]LR-NH2; staple 3-10) | – | – | – | – | – | – | – | – | –
5 | > 256 mg/L | > 256 mg/L | > 256 mg/L | > 256 mg/L | >256 mg/L | > 256 mg/L | > 256 mg/L | CC[C@H](C)[C@@H]1NC(=O)[C@H](CCCNC(=N)N)NC(=O)[C@](C)(NC(C)=O)CCCCCCC=CCCC[C@@](C)(C(=O)N[C@@H](CC(=O)O)C(=O)N[C@@H](Cc2ccccc2)C(=O)N[C@@H](CC(C)C)C(=O)N[C@@H](CCCNC(=N)N)C(N)=O)NC(=O)[C@H]([C@@H](C)CC)NC(=O)[C@H](CCCNC(=N)N)NC(=O)[C@H](CCC(N)=O)NC(=O)[C@H](C(C)C)NC1=O [KR-12 (K1, K8)] (Ac-[R8]RIVQRI[S5]DFLR-NH2; staple 1-8) | – | – | – | – | – | – | – | – | –
6 | > 256 mg/L | 64 mg/L (≈ 39.5 µM) | 64 mg/L (≈ 39.5 µM) | 256 mg/L (≈ 158 µM) | 32 mg/L (≈ 19.7 µM) | 64 mg/L (≈ 39.5 µM) | 64 mg/L (≈ 39.5 µM) | CC[C@H](C)[C@@H]1NC(=O)[C@H](CCCNC(=N)N)NC(=O)[C@](C)(NC(=O)[C@@H](NC(=O)[C@@H](NC(=O)[C@H](CCCNC(=N)N)NC(=O)[C@H](CCCCN)NC(C)=O)[C@@H](C)CC)C(C)C)CCCCCCC=CCCC[C@@](C)(C(N)=O)NC(=O)[C@H](CC(C)C)NC(=O)[C@H](Cc2ccccc2)NC(=O)[C@H](CC(=O)O)NC(=O)[C@H](CCCCN)NC1=O [KR-12 (Q5, R12)] (Ac-KRIV[R8]RIKDFL[S5]-NH2; staple 5-12) | – | – | – | – | – | – | – | – | –
7 | 64 mg/L (≈ 39.2 µM) | 256 mg/L (≈ 157 µM) | 128 mg/L (≈ 78.3 µM) | 256 mg/L (≈ 157 µM) | 128 mg/L (≈ 78.3 µM) | 256 mg/L (≈ 157 µM) | 128 mg/L (≈ 78.3 µM) | CC[C@H](C)[C@@H]1NC(=O)[C@H](CCCNC(=N)N)NC(=O)[C@H](CCC(N)=O)NC(=O)[C@H](C(C)C)NC(=O)[C@H]([C@@H](C)CC)NC(=O)[C@](C)(NC(=O)[C@H](CCCCN)NC(C)=O)CCCCCCC=CCCC[C@@](C)(C(=O)N[C@@H](Cc2ccccc2)C(=O)N[C@@H](CC(C)C)C(=O)N[C@@H](CCCNC(=N)N)C(N)=O)NC(=O)[C@H](CCCCN)NC1=O [KR-12 (R2, D9)] (Ac-K[R8]IVQRIK[S5]FLR-NH2; staple 2-9) | – | – | – | – | – | – | – | – | –
8 | 256 mg/L (≈ 151 µM) | 128 mg/L (≈ 75.6 µM) | 128 mg/L (≈ 75.6 µM) | > 256 mg/L | 128 mg/L (≈ 75.6 µM) | 128 mg/L (≈ 75.6 µM) | 128 mg/L (≈ 75.6 µM) | CC[C@H](C)[C@@H]1NC(=O)[C@H](CCCNC(=N)N)NC(=O)[C@H](CCC(N)=O)NC(=O)[C@](C)(NC(=O)[C@@H](NC(=O)[C@H](CCCNC(=N)N)NC(=O)[C@H](CCCCN)NC(C)=O)[C@@H](C)CC)CCCCCCC=CCCC[C@@](C)(C(=O)N[C@@H](CCCNC(=N)N)C(N)=O)NC(=O)[C@H](Cc2ccccc2)NC(=O)[C@H](CC(=O)O)NC(=O)[C@H](CCCCN)NC1=O [KR-12 (V4, L11)] (Ac-KRI[R8]QRIKDF[S5]R-NH2; staple 4-11) | – | – | – | – | – | – | – | – | –

— paper PMC10845205, “Discovery of novel antibacterial agent for the infected wound treatment: all-hydrocarbon stapling optimization of LL-37” (Theranostics, 2024)
